How the values were obtained:
[1] = tested on: breast cancer MCF-7 cells; test: Inhibition of growth and change of morphology of MCF-7 cells; assay type: cell-based, human; conditions: 2.5, 5, 7.5 and 10 µg/mL; for morphology of MCF-7 cells: 72 hours (Fig. 13(A), Fig. 14(A)); for growth of MCF-7 cancer cells: sodium butyrate 4mM, observed and counted after 72 hours (Fig. 13, Fig. 14)
Experimental: The breast cancer MCF-7 cells, were cultured in Dulbecco's modified Eagle's medium (DMEM; Gibco) supplemented with penicillin G, streptomycin sulphate, 0.5 mM of L-glutamine and 10% fetal bovine serum (FBS; Gibco) at 37 °C, 5% CO2 and 95% relative humidity. The cells were seeded at a density of 3×10^5 per well of 6-well plates. After 24 hours, the cells were treated with different concentrations of compound NBM-HD-1 and 4mM sodium butyrate being used as the positive control. The cells were observed after 48 hours and counted after 96 hours. […] In Fig. 8(A), after the cells were incubated with 2.5 µg/mL (Fig. 8(A)-b), 5 µg/mL (Fig. 8(A)-c) and 10 µg/mL (Fig. 8(A)-d) of NBM-HD-1 for 48 hours, the density of MCF-7 cells reduced dramatically in comparison with that of the control group (Fig. 8(A)-a). The morphology of the MCF-7 cells in the experimental group changed in comparison with that in the control group. […] The results of the cell counting (FIG. 8(B)) indicate that, similar to sodium butyrate, NBM-HD-1 inhibits cell growth.
MCF-7 cancer cells were seeded at a density of 3×10^5 per well in 6-well plates. After 24 hours, the cells were treated with different concentrations of compound NBM-HD-2 and 4mM sodium butyrate being used as the positive control. The cells were observed and counted after 72 hours. […] In Fig. 13(A), after the cells were incubated with 2.5 µg/mL (Fig. 13(A)-c), 5 µg/mL (Fig. 13(A)-d), 7.5 µg/mL (Fig. 13(A)-e) and 10 µg/mL (Fig. 13(A)-f) of NBM-HD-2 for 72 hours, the density of MCF-7 cells reduced dramatically in comparison with that of the control group (Fig. 13(A)-a). The morphology of the MCF-7 cells in the experimental group changed in comparison with that in the control group.
MCF-7 cancer cells were seeded at a density of 3×10^5 per well of 6-well plates. After 24 hours, the cells were treated with different concentrations of compound NBM-HD-3 and 4mM sodium butyrate, which was being used as the positive control. The cells were observed and counted after 72 hours. […] In Fig. 14(A), after the cells were incubated with 2.5 µg/mL (Fig. 14(A)-c), 5 µg/mL (Fig. 14(A)-d), 7.5 µg/mL (Fig. 14(A)-e) and 10 µg/mL (Fig. 14(A)-f) of NBM-HD-3 for 72 hours, the density of MCF-7 cells reduced dramatically in comparison with that of the control group (Fig. 14(A)-a). The morphology of the MCF-7 cells in the experimental group changed in comparison with that in the control group. […] The results of the cell counting (FIG. 14(B)) indicate that, similar to sodium butyrate, NBM-HD-3 inhibits cell growth.

acetylated histone H4 = test: Western blotting of hyperacetylated histone H4 in C6 glioma cell lysates; assay type: cell-based, rat; conditions: C6 glioma cells
Experimental: Accumulation of hyperacetylated histone H4 was analyzed in the cell lysates by using Western Blotting and the antibody directed against acetylated histone H4 (Upstate). The C6 glioma cells were seeded at a density of 1×10^6 per 10cm culture dish. After 24 hours, the cells were treated with 10 µg/mL of NBM-HD-1 or 4mM sodium butyrate for several hours. The whole-cell lysates were prepared by using denaturing SDS sample buffer and then separated on 15% SDS-polyacrylamide gels. […] The amount of acetylated histones was hardly detectable in untreated C6 glioma cells. The amount of acetylated histone H4 of the cells treated with 4mM sodium butyrate for 2 hours increased. Sodium butyrate was then removed from the culture medium. After 6 hours, the amount of acetylated histone H4 decreased. The accumulation of acetylated histone H4 increased in the cells treated with NBM-HD-1 for 2 hours. […] The highest histone acetylation appeared at 6 hours after the compound had been removed. […] Because NBM-HD-1 is more hydrophobic than sodium butyrate, NBM-HD-1 can be retained in the cells longer than sodium butyrate and continuously induce the acetylation of histone H4.

[2] = tested on: human giloblastoma DBTRG-05MG cancer cells; test: Inhibition of growth and change of morphology of DBTRG-05MG cells; assay type: cell-based; conditions: NBM-HD-1 2.5, 5 and 10 µg/mL, sodium butyrate 4 mM; 72 hours; density and cell counting (Fig. 7)
Experimental: The human giloblastoma DBTRG-05MG cancer cells were cultured in RPMI medium 1640 (Gibco) supplemented with penicillin G, streptomycin sulphate, 0.5 mM of L-glutamine and 10% fetal bovine serum (FBS; Gibco), 100mh/L sodium pyruvate (Gibco), and 1% NEAA (Gibco) at 37 °C, 5% CO2 and 95% relative humidity. For these experiments, the cells were seeded at a density of 3×10^5 per well of 6-well plates. After 24 hours, the cells were treated with different concentrations of NBM-HD-1 and 4 mM sodium butyrate. The cells were observed and counted after 72 hours. […] In 05MG cells (Fig. 7(A)), after incubation with 2.5 µg/mL (Fig. 7(A)-b), 5 µg/mL (Fig. 7(A)-c) and 10 µg/mL (Fig.7(A)-d) of NBM-HD-1 for 72 hours, the density of the cells reduced dramatically in comparison with that of the control group (Fig. 7(A)-a). The 05MG cells in the experimental group also changed to become longer than those in the control group.

Compound	morphology of MCF-7 cells [1]	growth of MCF-7 cancer cells [1]	accumulation of acetylated histone H4, treated for 2 hours (acetylated histone H4; 10 µg/mL NBM-HD-1 or 4mM sodium butyrate, 2 hours (Fig. 5))	amount of acetylated histone H4 after removal of the compound from the culture medium (acetylated histone H4; up to 6 hours after removal (Fig. 5))	growth of 05MG cells [2]
COc1cc2c(c(O)c1CC=C(C)C)C(=O)C[C@@H](c1ccc(OC)c(OC)c1C/C=C(\C)CCCC(C)(C)O)O2 [NBM-HD-2]	change their morphology	can inhibit the growth of MCF-7 cancer cells in a dose-dependent manner	–	–	–
COc1cc2c(c(O)c1CCC(C)(C)O)C(=O)C[C@@H](c1ccc(OC)c(OC)c1C/C=C(\C)CCCC(C)(C)O)O2 [NBM-HD-3]	change their morphology	can inhibit the growth of MCF-7 cancer cells in a dose-dependent manner	–	–	–
CCCC(=O)[O-].[Na+] [sodium butyrate, reference compound]	–	–	increased	decreased	could inhibit the proliferation of 05MG cancer cells

Source: patent EP2045247B1, “Compounds for the inhibition of histone deacetylase” (NatureWise Biotech & Medicals Corporation, priority 2007, dated 2009)
